The experiment deals with HT29 cancer cells. Put plainly: Fluorescence imaging of cellular uptake in live HT29 cancer cells. It counts as cell-based, Human. The note with it: 50 μM, 0.5 h incubation. The source says: In order to visualize cellular uptake using fluorescence imaging, C-NE3TA was conjugated with an organic fluorescent moiety, NBD to produce C-NE3TA-NBD (FIG. 40). Thus, the starting material 15 was reacted with NBD-Cl to provide the fluorescent conjugate 16. t-Butyl groups in Compound 16 were removed by treating 4M HCl in 1,4-dioxane. C-NE3TA has the respective excitation and emission wavelength of 446 nm and 512 nm. Fluorescence and phase contrast images of control HT29 cells or HT29 cells incubated with C-NE3TA-NBD (50 μM) were obtained using a confocal microscope with a band-pass filter set at 436/20 nm (excitation) and 535/30 nm (emission). […] It was noted that the control HT29 colon cancer cells also emit auto-fluorescence at the wavelength of excitation. While polyaminocarboxylate NE3TA is too hydrophilic to enter the cancer cells, C-NE3TA-NBD containing liphophilic moieties, both benzyl and NBD group is proposed to penetrate into the cells resulting in the punctuate present in the cancer cells.
Fluorescence Imaging of live cancer cells. HT29 cancer cells were plated in glass cover slips which placed in 6-well plates, and were incubated with growth media in a humidified atmosphere with 5% CO2 at 37° C. overnight. Control cells or cells containing C-NE3TA-NBD (50 μM, H2O) were incubated with media for 0.5 h under 5% CO2 at 37° C. […]
Fluorescence imaging of live cancer cells. […]

On to `O=C(O)CNC(Cc1ccc(Nc2ccc([N+](=O)[O-])c3nonc23)cc1)CN1CCN(CC(=O)O)CCN(CC(=O)O)CC1` (stereo not shown) [C-NE3TA-NBD, (4-Carboxymethyl-7-{2-(carboxymethyl-amino)-3-[4-(7-nitro-benzo[1,2,5]oxadiazol-4-ylamino)-phenyl]-propyl}-[1,4,7]triazonan-1-yl)-acetic acid], for which the “cellular uptake by fluorescence imaging (in words)” value is listed as “does accumulate in the HT29 cancer cells”.

Source of the values: patent US10189803B2, “Synthesis of therapeutic and diagnostic drugs centered on regioselective and stereoselective ring opening of aziridinium ions” (ILLINOIS INSTITUTE OF TECHNOLOGY, priority 2008, dated 2019).
